In BindingDB's records for patent US10485800 (The University of Rochester, 2019):

Target: Mitogen-activated protein kinase kinase kinase 11 (Homo sapiens, UniProt Q16584)
Assay: Radiometric Filter Plate MLK3 Assay
Method: 200 ng (130 nM) MLK3 (Dundee, DU8313) was incubated with 1 μM inactive MKK7b (Dundee, DU703) in the presence of 2 μM cold ATP (Km) and 0.5 μCi/assay 33P ATP and appropriate concentrations of compounds. After a twenty minute incubation, the reactions were washed through filter plates and read on a scintillation counter.

Chain of Mitogen-activated protein kinase kinase kinase 11 (Q16584 whole entry): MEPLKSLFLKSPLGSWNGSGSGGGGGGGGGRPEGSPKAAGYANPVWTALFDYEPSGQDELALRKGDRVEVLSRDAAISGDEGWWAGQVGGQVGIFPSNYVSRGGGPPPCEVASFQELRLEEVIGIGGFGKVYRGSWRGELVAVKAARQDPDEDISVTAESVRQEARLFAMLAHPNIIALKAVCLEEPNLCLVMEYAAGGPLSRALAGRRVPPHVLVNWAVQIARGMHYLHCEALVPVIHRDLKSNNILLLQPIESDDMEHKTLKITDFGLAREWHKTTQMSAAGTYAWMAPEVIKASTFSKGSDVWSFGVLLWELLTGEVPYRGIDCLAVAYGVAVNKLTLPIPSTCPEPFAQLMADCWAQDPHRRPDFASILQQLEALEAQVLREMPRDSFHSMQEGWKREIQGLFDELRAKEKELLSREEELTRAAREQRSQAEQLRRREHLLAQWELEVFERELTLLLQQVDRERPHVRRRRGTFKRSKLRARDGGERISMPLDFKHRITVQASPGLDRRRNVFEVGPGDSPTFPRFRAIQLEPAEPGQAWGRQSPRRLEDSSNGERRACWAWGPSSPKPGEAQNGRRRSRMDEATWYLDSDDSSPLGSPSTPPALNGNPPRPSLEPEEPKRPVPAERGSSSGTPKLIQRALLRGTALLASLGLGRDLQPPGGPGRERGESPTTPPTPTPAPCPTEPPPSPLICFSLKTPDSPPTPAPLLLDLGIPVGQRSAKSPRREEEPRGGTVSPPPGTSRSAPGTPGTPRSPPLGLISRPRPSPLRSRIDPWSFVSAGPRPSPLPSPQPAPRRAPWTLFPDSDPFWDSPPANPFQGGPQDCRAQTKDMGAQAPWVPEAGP

CC(=O)N1CCN(C(=O)c2ccc(-c3cnc4[nH]cc(-c5ccc(C(N)=O)cc5)c4c3)cc2)CC1 [US10485800, Example 150] was tested, and the IC50 was “in the range around 550 nM”.
